Each molecule was assayed against human SGLT2 (Homo sapiens (Human), UniProt P31639) (assay: Inhibitory effects on human SGLT2 activities (14C-AMG uptake, sodium-dependent glucose transport assay)). Conditions: CHO cells stably expressing hSGLT2, 37° C., 2 h, single determinations.
human SGLT2, sequence (P31639 whole entry): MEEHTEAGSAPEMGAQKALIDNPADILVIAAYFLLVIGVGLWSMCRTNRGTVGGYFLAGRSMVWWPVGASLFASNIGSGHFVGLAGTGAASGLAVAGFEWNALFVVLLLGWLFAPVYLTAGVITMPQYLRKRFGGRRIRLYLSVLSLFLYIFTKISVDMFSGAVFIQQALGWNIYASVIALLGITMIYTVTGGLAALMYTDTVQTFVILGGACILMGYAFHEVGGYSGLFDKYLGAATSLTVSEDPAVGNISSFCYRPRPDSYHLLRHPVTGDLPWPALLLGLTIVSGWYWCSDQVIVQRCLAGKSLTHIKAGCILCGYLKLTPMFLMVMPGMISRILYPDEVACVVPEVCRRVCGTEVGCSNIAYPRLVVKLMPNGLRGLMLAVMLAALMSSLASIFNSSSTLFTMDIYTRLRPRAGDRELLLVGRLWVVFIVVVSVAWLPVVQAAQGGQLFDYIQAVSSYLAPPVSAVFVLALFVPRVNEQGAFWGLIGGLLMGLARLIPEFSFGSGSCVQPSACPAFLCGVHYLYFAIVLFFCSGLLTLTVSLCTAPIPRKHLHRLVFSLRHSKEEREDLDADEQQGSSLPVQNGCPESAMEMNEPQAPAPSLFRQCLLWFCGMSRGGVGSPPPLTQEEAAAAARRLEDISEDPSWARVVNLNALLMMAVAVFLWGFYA
Assay type: cell-based
Source text: Test 1: Cloning and Cell Line Construction for Human SGLT2
Human SGLT2 (hSGLT2) gene was amplified by PCR from cDNA-Human Adult Normal Tissue Kidney (Invitrogen). The hSGLT2 sequence was cloned into pcDNA3.1(+) for mammalian expression and stably transfected into chinese hamster ovary (CHO) cells. SGLT2-expressing clones were selected based on resistance to G418 antibiotic (Geneticin) and activity in the ^14C-α-methyl-D-glucopyranoside (^14C-AMG) uptake assay.
Test 2: Inhibitory Effects on Human SGLT2 Activities
For sodium-dependent glucose transport assay, cells expressing hSGLT2 were seeded into a 96-well culture plate at a density of 5×10^4 cells/well in RPMI medium 1640 containing 10% fetal bovine serum. The cells were used 1 day after plating. They were incubated in pretreatment buffer (10 mM HEPES, 5 mM Tris, 140 mM choline chloride, 2 mM KCl, 1 mM CaCl2, and 1 mM MgCl2, pH 7.4) at 37° C. for 10 min. They were then incubated in uptake buffer (10 mM HEPES, 5 mM Tris, 140 mM NaCl, 2 mM KCl, 1 mM CaCl2, 1 mM MgCl2, and 1 mM ^14C-nonlabeled AMG pH 7.4) containing ^14C-labeled AMG (8 μM) and the inventive compound or dimethyl sulfoxide (DMSO) vehicle at 37° C. for 2 h. Cells were washed twice with washing buffer (pretreatment buffer containing 10 mM AMG at room temperature) and then the radioactivity was measured using a liquid scintillation counter. IC50 was determined by nonlinear regression analysis using GraphPad PRISM [Katsuno, K. et al. J. Pharmacol. Exp. Ther. 2007, 320, 323-330; Han, S. et al. Diabetes, 2008, 57, 1723-1729].
An IC50 of 0.835 nM was found for `CCc1ccc(Cc2cc([C@@H]3O[C@H](CO)[C@@H](O)[C@H](O)[C@H]3O)c3c(c2Cl)OC(C)C3)cc1` (stereo partly drawn) [Example E136, (2S,3R,4R,5S,6R)-2-(7-Chloro-6-(4-ethylbenzyl)-2-methyl-2,3-dihydrobenzofuran-4-yl)-6-(hydroxymethyl)tetrahydro-2H-pyran-3,4,5-triol] in this work. An IC50 of 1.13 nM was found for `CC1Cc2c([C@@H]3O[C@H](CO)[C@@H](O)[C@H](O)[C@H]3O)cc(Cc3ccc(C4CC4)cc3)c(Cl)c2O1` (stereo partly drawn) [Example E138, (2S,3R,4R,5S,6R)-2-(7-Chloro-6-(4-cyclopropylbenzyl)-2-methyl-2,3-dihydrobenzofuran-4-yl)-6-(hydroxymethyl)tetrahydro-2H-pyran-3,4,5-triol] in this work. An IC50 of 0.891 nM was found for `CCc1ccc(Cc2cc([C@@H]3O[C@H](CO)[C@@H](O)[C@H](O)[C@H]3O)c3c(c2Cl)C(C)CO3)cc1` (stereo partly drawn) [Example E215, (2S,3R,4R,5S,6R)-2-(4-Chloro-5-(4-ethylbenzyl)-3-methyl-2,3-dihydrobenzofuran-7-yl)-6-(hydroxymethyl)tetrahydro-2H-pyran-3,4,5-triol] in this work. An IC50 of 5.05 nM was found for `OC[C@H]1O[C@@H](c2cc(Cc3ccc(OC4COC4)cc3)c(Cl)c3c2CCO3)[C@H](O)[C@@H](O)[C@@H]1O` [Example E204, (2S,3R,4R,5S,6R)-2-(7-Chloro-6-(4-(oxetan-3-yloxy)benzyl)-2,3-dihydrobenzofuran-4-yl)-6-(hydroxymethyl)tetrahydro-2H-pyran-3,4,5-triol] in this work. An IC50 of 1.22 nM was found for `CCCOc1ccc(Cc2cc([C@@H]3O[C@H](CO)[C@@H](O)[C@H](O)[C@H]3O)c3c(c2Cl)OCC3)cc1` [Example E194, (2S,3R,4R,5S,6R)-2-(7-Chloro-6-(4-propoxybenzyl)-2,3-dihydrobenzofuran-4-yl)-6-(hydroxymethyl)tetrahydro-2H-pyran-3,4,5-triol] in this work. An IC50 of 3.56 nM was found for `COc1ccc(Cc2cc([C@@H]3O[C@H](CO)[C@@H](O)[C@H](O)[C@H]3O)c3c(c2Cl)C(O)CO3)cc1` (stereo partly drawn) [Example E196, (2S,3R,4R,5S,6R)-2-(4-Chloro-3-hydroxy-5-(4-methoxybenzyl)-2,3-dihydrobenzofuran-7-yl)-6-(hydroxymethyl)tetrahydro-2H-pyran-3,4,5-triol] in this work. An IC50 of 1.55 nM was found for `CCOc1ccc(Cc2cc([C@@H]3O[C@H](CO)[C@@H](O)[C@H](O)[C@H]3O)c3c(c2Cl)CCCO3)cc1` [Example E012, (2S,3R,4R,5S,6R)-2-(5-Chloro-6-(4-ethoxybenzyl)chroman-8-yl)-6-(hydroxymethyl)tetrahydro-2H-pyran-3,4,5-triol] in this work. An IC50 of 1.15 nM was found for `COc1ccc(Cc2cc([C@@H]3O[C@H](CO)[C@@H](O)[C@H](O)[C@H]3O)c3c(c2Br)CCC3)cc1` [Example E001, (2S,3R,4R,5S,6R)-2-(7-Bromo-6-(4-methoxybenzyl)-2,3-dihydro-1H-inden-4-yl)-6-(hydroxymethyl)tetrahydro-2H-pyran-3,4,5-triol] in this work. An IC50 of 0.845 nM was found for `CCc1ccc(Cc2cc([C@@H]3O[C@H](CO)[C@@H](O)[C@H](O)[C@H]3O)c3c(c2Cl)CCCO3)cc1` [Example E017, (2S,3R,4R,5S,6R)-2-(5-Chloro-6-(4-ethylbenzyl)chroman-8-yl)-6-(hydroxymethyl)tetrahydro-2H-pyran-3,4,5-triol] in this work. An IC50 of 1.52 nM was found for `CCOc1ccc(Cc2cc([C@@H]3O[C@H](CO)[C@@H](O)[C@H](O)[C@H]3O)c3c(c2Cl)OCC3)cc1` [Example E024, (2S,3R,4R,5S,6R)-2-(7-Chloro-6-(4-ethoxybenzyl)-2,3-dihydrobenzofuran-4-yl)-6-(hydroxymethyl)tetrahydro-2H-pyran-3,4,5-triol] in this work. An IC50 of 0.404 nM was found for `CCc1ccc(Cc2cc([C@@H]3O[C@H](CO)[C@@H](O)[C@H](O)[C@H]3O)c3c(c2Cl)OCO3)cc1` [Example E162, (2S,3R,4R,5S,6R)-2-(7-Chloro-6-(4-ethylbenzyl)benzo[d][1,3]dioxol-4-yl)-6-(hydroxymethyl)tetrahydro-2H-pyran-3,4,5-triol] in this work. An IC50 of 7.62 nM was found for `CC1Cc2cc(Cc3cc([C@@H]4O[C@H](CO)[C@@H](O)[C@H](O)[C@H]4O)ccc3Cl)ccc2O1` (stereo partly drawn) [Example E065, (2S,3R,4R,5S,6R)-2-(4-Chloro-3-((2-methyl-2,3-dihydrobenzofuran-5-yl)methyl)phenyl)-6-(hydroxymethyl)-tetrahydro-2H-pyran-3,4,5-triol] in this work. An IC50 of 1.14 nM was found for `OC[C@H]1O[C@@H](c2cc(Cc3ccc(C(F)F)cc3)c(Cl)c3c2CCO3)[C@H](O)[C@@H](O)[C@@H]1O` [Example E176, (2S,3R,4R,5S,6R)-2-(7-Chloro-6-(4-(difluoromethyl)benzyl)-2,3-dihydrobenzofuran-4-yl)-6-(hydroxymethyl)tetrahydro-2H-pyran-3,4,5-triol] in this work. An IC50 of 0.627 nM was found for `CCc1ccc(Cc2cc([C@@H]3O[C@H](CO)[C@@H](O)[C@H](O)[C@H]3O)c3c(c2Cl)CCC3)cc1` [Example E238, (2S,3R,4R,5S,6R)-2-(7-Chloro-6-(4-ethylbenzyl)-2,3-dihydro-1H-inden-4-yl)-6-(hydroxymethyl)tetrahydro-2H-pyran-3,4,5-triol] in this work. An IC50 of 0.867 nM was found for `CCOc1ccc(Cc2cc([C@@H]3O[C@H](CO)[C@@H](O)[C@H](O)[C@H]3O)c3c(c2Cl)OCC3C)cc1` (stereo partly drawn) [Example E224, (2S,3R,4R,5S,6R)-2-(7-Chloro-6-(4-ethoxybenzyl)-3-methyl-2,3-dihydrobenzofuran-4-yl)-6-(hydroxymethyl)-tetrahydro-2H-pyran-3,4,5-triol] in this work. An IC50 of 0.86 nM was found for `Cc1c(Cc2ccc3c(c2)OCCO3)cc([C@@H]2O[C@H](CO)[C@@H](O)[C@H](O)[C@H]2O)c2c1CCC2` [Example E107, (2S,3R,4R,5S,6R)-2-(6-((2,3-Dihydrobenzo[b][1,4]dioxin-6-yl)methyl)-7-methyl-2,3-dihydro-1H-inden-4-yl)-6-(hydroxymethyl)tetrahydro-2H-pyran-3,4,5-triol] in this work. An IC50 of 3.73 nM was found for `CCOc1ccc(Cc2cc([C@@H]3O[C@H](CO)[C@@H](O)[C@H](O)[C@H]3O)cc(-c3cccs3)c2C)cc1` [Example E090, (2S,3R,4R,5S,6R)-2-(3-(4-Ethoxybenzyl)-4-methyl-5-(thiophen-2-yl)phenyl)-6-(hydroxymethyl)-tetrahydro-2H-pyran-3,4,5-triol] in this work. An IC50 of 9.08 nM was found for `OC[C@H]1O[C@@H](c2ccc(Cl)c(Cc3ccc(N4CCOCC4)cc3)c2)[C@H](O)[C@@H](O)[C@@H]1O` [Example E211, (2S,3R,4R,5S,6R)-2-(4-Chloro-3-(4-morpholinobenzyl)phenyl)-6-(hydroxymethyl)tetrahydro-2H-pyran-3,4,5-triol] in this work. An IC50 of 15.4 nM was found for `CCOc1ccc(Cc2cc([C@@H]3O[C@H](CO)[C@@H](O)[C@H](O)[C@H]3O)cc(-c3ccccc3Cl)c2C)cc1` [Example E086, (2S,3R,4R,5S,6R)-2-(6′-Chloro-5-(4-ethoxybenzyl)-6-methylbiphenyl-3-yl)-6-(hydroxymethyl)-tetrahydro-2H-pyran-3,4,5-triol] in this work. An IC50 of 5.56 nM was found for `OC[C@H]1O[C@@H](c2cc(Cc3ccc4c(c3)NCCO4)c(Cl)c3c2CCO3)[C@H](O)[C@@H](O)[C@@H]1O` [Example E231, (2S,3R,4R,5S,6R)-2-(7-Chloro-6-((3,4-dihydro-2H-benzo[b][1,4]oxazin-6-yl)methyl)-2,3-dihydrobenzofuran-4-yl)-6-(hydroxymethyl)-tetrahydro-2H-pyran-3,4,5-triol] in this work.

Source: patent US9034921B2, “Diphenylmethane derivatives as SGLT2 inhibitors” (GREEN CROSS CORPORATION, priority 2011, dated 2015)
